Values joined by “and” are separate entries in the source; they are usually repeats but may differ in a detail not shown here. Equal entries are not always repeated.
Test system: skin blemishes caused by cellulite and localised adiposity
Experiment: Plicometry: skin plica thickness measured with a plicometer, dermatological test of the cosmetic gel
Assay type: in vivo, female volunteers
Details: same tests repeated with the single reactant; site and time point of each value not given
Description: A dermatological test was carried out on 25 female volunteers between 18 and 65 years of age, with the backing of the Department of Physiological and Pharmacological Sciences of the university of Pavia. The investigation aimed to check the modification of three anatomical-physiological parameters, qualifying the unaesthetic-functional aspect connected to the manifestation of so-called cellulite and subcutaneous hypertriglyceridaemia: measurement of the skin folds, measurement of the circumference of the thighs, thermographic skin measurement.
The test stretched out over 60 days with the continual daily application of the aforementioned preparation of cosmetic gel. The measurements were carried out after 15, 30 and 60 days. The detail of the test protocol and of the results obtained is shown hereafter.
25 female volunteers aged between 18 and 65, with the presence of skin blemishes caused by cellulite and localised adiposity, were selected according to the following criteria: good general state of health, absence of skin pathologies, not being under medication, commitment not to vary the normal daily routine, no medical history of atopy.
The samples were tested by uniformly applying them on “Glute SX Glute DJ (Femoris Posto SX Femoris Posto DX Femoris Ant. SX Femoris Ant. DX” every day at least once per day for the entire duration of the test.
At the time of inclusion in the study and during the subsequent checks after 15 days (T15), after 30 days (T30) and after 60 days (T60) of treatment the following instrumental measurements were taken: • plicometry (through a plicometer) • thigh circumference (through a measuring tape broken into millimetres) • contact thermography (through liquid crystal thermographic plates).
In particular, the plicometer used in the test constitutes the suitable instrument for measuring the skin plica thickness. Skin plicometry provides numerical data of particular use when the panniculopathic process of the cellulite is associated with localised adiposity.

## C[N+](C)(C)CC(O)CC(=O)O (stereo not shown) [Carnitine (II), 3-carboxy-2-hydroxy-propyl trimethyl amine, reference compound]
  PLICOMETRY SX, average values: 25.7 and 23.7
